Consider two compounds from ChEMBL document CHEMBL3046464, “3D quantitative structureactivity relationship for quinoline, benzimidazole and benzofuran-based analogs as phosphodiesterases IV (PDE-IV) inhibitors” (Med Chem Res, 2013).

The target in the assay is Phosphodiesterase 4 (Homo sapiens, UniProt P27815+Q08499+Q07343+Q08493). As to the kind of experiment: Inhibition of PDE4 in Homo sapiens (human) U937 cells. In kind it is cell-based. To be noted: u-937.

For orientation: pIC50 means the negative decadic logarithm of the IC50, by convention in mol/L. For the compound `CO/N=C(\C)c1ccc2c(C(=O)Nc3c(Cl)cncc3Cl)ccc(OC)c2n1`, the pIC50 is 6.678.
The compound `COc1ccc(C(=O)Nc2c(Cl)cncc2Cl)c2c1ncn2C` returned a pIC50 of 5.
